Data taken from US9321747B2, “Acid addition salt of substituted pyridine compound” (DAIICHI SANKYO COMPANY, LIMITED, priority 2012, dated 2016).
Where a name gives a salt, the structure may show the parent alone.

Target: recombinant human CETP protein (Homo sapiens (Human), UniProt P11597)
Assay: Test of CETP inhibition activity (in vitro, buffer-based)
Assay type: biochemical
Conditions: [14C]-cholesteryl ester transfer from reconstituted HDL to acceptor lipoprotein, 37° C., 60 minutes, PBS buffer
Protocol: Test of CETP Inhibition Activity (In Vitro, Buffer-Based)
(1) Preparation of Reconstituted HDL
Cholesterol (1.125 μmol), phosphatidyl choline (4.5 μmol) and [^14C]-labeled cholesteryl ester (2.0 μCi; 40 μl) were taken in a glass test tube and well mixed with a vortex, and dried under a nitrogen gas current so that it formed a thin film. The obtained mixture was dissolved in ethanol (200 μl), which was designated as Solution A. A PBS solution [a mixed solution of Na2HPO4 (30 mM), KH2PO4 (8.8 mM), NaCl (60 mM) and EDTA (pH 7.4; 0.67 mM); 4 ml] was taken in a tube and the reaction solution was vigorously stirred with a vortex under a nitrogen current. The above-described Solution A was gently injected into this mixture with a syringe and the reaction solution was vigorously stirred with a vortex for 5 minutes under a nitrogen current. Sodium cholate (200 mM; 0.38 ml) was added to the obtained mixture and the reaction solution was stirred for 2 minutes. ApoA-I protein (3 mg) was added to the obtained mixture and the reaction solution was stirred for 2 minutes. The obtained mixture was adjusted to 5 ml with the PBS solution and then dialyzed with the PBS solution. The obtained mixture was designated as the reconstituted HDL.
(2) Preparation of Acceptor Lipoprotein
NaBr was added to the plasma of a healthy person and the density of the mixture was adjusted to 1.019, and the mixture was subjected to density gradient centrifugation (40000 rpm, for 16 hours) to remove the fraction having a density of less than 1.019. NaBr was added to the obtained mixture and the density of the solution was adjusted to 1.063, and the solution was subjected to density gradient centrifugation (40000 rpm, 18 hours) to provide the fraction consisting of IDL (intermediate density lipoprotein) and LDL (1.019<density<1.063). The obtained fraction was dialyzed with the PBS solution. The obtained mixture was designated as the acceptor lipoprotein.
(3) Measurement of CETP Inhibition Activity
A recombinant human CETP protein (manufactured by Roar Biomedical Inc.; 4.5 ng), the acceptor lipoprotein described in (2) above (32.5 μg) and 5,5′-dithio-bis-(2-nitrobenzoic acid) (7 mM, 15 μl) were taken in a 96 well plate and the total amount of the mixture was adjusted to 48.5 μl with the PBS solution. The test compound [DMSO solution (concentration: 0.15, 0.5, 1.5, 5, 15, 50, 150 and 500 μM); 1.5 μl] was added to each well and the mixture was incubated in a thermostatic bath at 37° C. for 60 minutes. The reconstituted HDL (50 μl) described in (1) above was added to each well and the mixture was reacted in a thermostatic bath at 37° C. for 60 minutes. The 96 well plate was moved onto ice and a precipitation reagent [a mixed solution of magnesium chloride (60 mM) and 0.1% dextran sulfate[1/1(v/v)]; 15 μl] was added to each well, and then the mixture was allowed to stand on ice for 15 minutes. The reaction solution (80 μl) in each well was moved to a filter plate and centrifuged at 1500 rpm for 1 minute, and the filtrate which passed through the filter was designated as the HDL fraction and the radioactivity thereof was measured with a scintillation counter. The percentage decrease in radioactivity in the case where the test compound was added in comparison with that in case where the test compound was not added was designated as the percentage CETP inhibition. The IC50 value was calculated from the percentage CETP inhibition.

Sequence of recombinant human CETP protein (P11597 18-493): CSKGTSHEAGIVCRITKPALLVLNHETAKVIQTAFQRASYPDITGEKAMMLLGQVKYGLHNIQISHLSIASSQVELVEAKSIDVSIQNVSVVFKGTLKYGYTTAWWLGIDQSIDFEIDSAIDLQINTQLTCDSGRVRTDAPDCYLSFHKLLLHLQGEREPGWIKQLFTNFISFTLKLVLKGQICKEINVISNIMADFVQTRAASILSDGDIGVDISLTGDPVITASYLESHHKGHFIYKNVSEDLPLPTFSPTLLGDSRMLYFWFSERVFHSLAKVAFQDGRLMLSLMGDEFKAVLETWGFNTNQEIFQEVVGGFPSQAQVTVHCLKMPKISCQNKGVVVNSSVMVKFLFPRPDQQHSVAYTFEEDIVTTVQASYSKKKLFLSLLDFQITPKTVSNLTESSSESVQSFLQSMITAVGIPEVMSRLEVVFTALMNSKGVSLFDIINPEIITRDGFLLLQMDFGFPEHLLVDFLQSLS

Row | SMILES | IC50 (dihydrobromide) | also measured
1 | CC1(C)Cc2nc(C3CCN(c4ncc(OCCCS(C)(=O)=O)cn4)CC3)c([C@@H](F)c3ccc(C(F)(F)F)cc3)c(C3CCC(F)(F)CC3)c2[C@@H](O)C1 [Example 18, (5S)-4-(4,4-Difluorocyclohexyl)-3-{(S)-fluoro[4-(trifluoromethyl)phenyl]methyl}-7,7-dimethyl-2-(1-{5-[3-(methylsulfonyl)propoxy]pyrimidin-2-yl}piperidin-4-yl)-5,6,7,8-tetrahydroquinolin-5-ol dihydrobromide] | 18.9 nM | –
2 | CC1(C)Cc2nc(C3CCN(c4ncc(OCCCS(C)(=O)=O)cn4)CC3)c([C@@H](F)c3ccc(C(F)(F)F)cc3)c(C3CCC(F)(F)CC3)c2[C@@H](O)C1 [Example 19, (5S)-4-(4,4-Difluorocyclohexyl)-3-{(S)-fluoro[4-(trifluoromethyl)phenyl]methyl}-7,7-dimethyl-2-(1-{5-[3-(methylsulfonyl)propoxy]pyrimidin-2-yl}piperidin-4-yl)-5,6,7,8-tetrahydroquinolin-5-ol methanesulfonate] | – | IC50: 22.9 nM
3 | CC1(C)Cc2nc(C3CCN(c4ncc(-c5cccc(C(=O)O)c5)cn4)CC3)c([C@@H](F)c3ccc(C(F)(F)F)cc3)c(C3CCC(F)(F)CC3)c2[C@@H](O)C1 [Example 20, (5S)-2-{1-[5-(3-Carboxyphenyl)pyrimidin-2-yl]piperidin-4-yl}-4-(4,4-difluorocyclohexyl)-3-{(S)-fluoro[4-(trifluoromethyl)phenyl]methyl}-7,7-dimethyl-5,6,7,8-tetrahydroquinolin-5-ol dihydrochloride] | – | IC50 (dihydrochloride): 289 nM
4 | CC1(C)Cc2nc(C3CCN(c4ncc(-c5cccc(C(=O)O)c5)cn4)CC3)c([C@@H](F)c3ccc(C(F)(F)F)cc3)c(C3CCC(F)(F)CC3)c2[C@@H](O)C1 [Example 21, (5S)-2-{1-[5-(3-Carboxyphenyl)pyrimidin-2-yl]piperidin-4-yl}-4-(4,4-difluorocyclohexyl)-3-{(S)-fluoro[4-(trifluoromethyl)phenyl]methyl}-7,7-dimethyl-5,6,7,8-tetrahydroquinolin-5-ol dihydrobromide] | 279 nM | –
